From patent US8652467B2, “Dek protein compositions and methods of using the same” (The Regents of the University of Michigan, priority 2005, dated 2014)
“Also recorded” adds a separate entry of the source. Peptide text beside a SMILES is read from it. * marks the point of attachment. Cbz = O=C(OCc1ccccc1)*; CH2F = FC*

Assays:
[1] = system: Jurkat control and DEK-knockdown cells; experiment: DEK knock-down and DNA damage assay (Annexin-V); format: cell-based; conditions: increasing doses, 24 hours
Procedure: Jurkat and HeLa S3 cells were transduced with either an empty lentiviral vector, or a vector containing two DEK-specific shRNAs. Control and DEK-knockdown Jurkat cells were exposed to increasing doses of UVC radiation. Twenty-four hours after irradiation, the percentage of apoptotic cells was determined by staining with Annexin-V and analysis by flow cytometry. HeLa S3 control and DEK-knockdown cells were similarly treated with increasing doses of UVC radiation. Cells were fixed, permeabilized, and stained with R-phycoerythrin labeled antibodies against the active form of caspase-3 twenty-four hours after irradiation. The percentage of cells expressing the active form of caspase-3 was determined by flow cytometry. Jurkat control and DEK-knockdown transduced cells were treated with either etoposide or cisplatin at increasing doses and 24 hours later the percentage of apoptotic cells was determined by staining with Annexin-V.

[2] = system: monocyte-derived macrophages (MDM); experiment: DEK secretion by serum-differentiated MDM, Western blot of supernatants; format: cell-based, human; conditions: for amount of DEK found in culture supernatants: treatment of MDM with Golgi inhibitors
Procedure: MDM were prepared as described (See, e.g., Lane et al., J Immunol 163, 3653-61. (1999)). Briefly, heparinized venous blood was collected from healthy volunteers, and peripheral blood mononuclear cells (PBMC) were separated by Ficoll-Hypaque (Amersham Pharmacia Biotech AB, Uppsala, Sweden) density gradient centrifugation. MDM were purified by adherence to plastic for 2 h at 37° C. at a concentration of 5×10^5/ml. Adherent cells were consistently >90% monocytes (See, e.g., Lane et al., J Immunol 163, 3653-61. (1999)). […]
MDMs were maintained for 12 h in serum-free conditioned media with added dexamethasone, (0.5 μM or 1 μM) (Sigma St. Louis, Mo.), cyclosporin A (CsA, 1 μg/ml) (Sigma St. Louis, Mo.), carbonyl cyanide chlorophenyl hydrazone (CCCP) (10 μM) (Sigma St. Louis, Mo.), IL-8 (10 ng/ml) (R&D Systems, Minneapolis, Minn.) or TBB (See, e.g., Sarno et al., Pharmacol Ther 93, 159-68 (2002)) for 3 hours. Following 3 washes with PBS, serum-free media was added for 3 to 12 h before harvest. The viability of the cells incubated in serum-free medium with or without added drugs was >95% at 48 h as measured by MTT-based colorimetric assay (Boehringer Mannheim, Indianapolis, Ind.) and by LDH release as previously described (See, e.g., Punturieri et al., J Exp Med 192, 789-99. (2000)). Supernatants were collected and centrifuged for 20 min at 200×g to remove cell debris, then concentrated by a centrifugal filter device (Millipore) in the presence of a protease inhibitor cocktail (Boehringer Mannheim, Indianapolis, Ind.). Equal amounts of protein (20 μg) were loaded under reducing conditions and proteins were separated by 10% SDS-PAGE. The proteins were subsequently transferred to nitrocellulose and probed with mouse monoclonal anti-DEK or rabbit or goat polyclonal anti-DEK antibodies. The bound primary antibody was then detected with horseradish peroxidase-conjugated goat anti-mouse or anti-rabbit secondary antibody using the Super Signal West Pico system (Pierce Chemical Co, Rockford, Ill.).

[3] = system: purified neutrophils (PMN); experiment: In vitro migration assay with purified neutrophils; format: cell-based, human; conditions: SB225002 3 μM, 1 h
Procedure: Purified neutrophils (PMN) were treated with IL-8 (50 nM), the CXCR2 small molecule inhibitor SB225002 (3 μM), DEK (79 nM), IL-8 plus SB225002, or DEK plus SB225002 for 5 min at room temperature before and then during the migration assay. After 1 h, the number of fluorescently labeled migrating cells in the lower chamber was determined at 485 nM/535 nm wavelengths by Tecan GENios (Phenix, Austria). […] The results are expressed as the average fold increase in the number of cells migrating toward DEK compared to control wells containing medium only. White blood cells were isolated from venous blood from healthy donors as described above, and were depleted of monocytes by adherence to plastic for 2 h as described in the Cell Preparation section. […] The cells were washed and resuspended at 1×10^6 cells/ml in serum-free RPMI medium, and 1×10^5 labeled cells in 100 μl were added to the upper chamber of a 24-well Transwell chemotaxis insert with pore size of 3 μm or 5 μm (Corning, N.Y.). The lower chambers contained serum-free RPMI medium alone, recombinant DEK made in baculovirus, or a deletion mutant of the β form of human GLI-2 (See, e.g., Smith et al., J Virol 75, 2301-13 (2001)) produced in baculovirus as the control protein. After 30 min to 1 h, the number of fluorescently labeled migrating cells in the lower chamber was determined at […] wavelength using a Tecan GENios plate-reader (Phenix, Austria). The results were expressed as the average fold increase of the number of cells migrating toward lower chambers containing DEK divided by the number of cells migrating toward the control wells (medium alone). Forty ml of venous blood was collected from healthy volunteers into a 50 ml sterile syringe containing a mixture of 7 ml 0.25 M Citrate (0.17 M NA Citrate and 0.083 M Citric Acid) and 6% Dextran in PBS buffer. The blood was incubated for 30 min at room temperature and the upper phase was collected and further separated by Ficoll as described above. The neutrophil fraction was collected and washed with HBSS buffer and then pelleted again. […]

[4] = molecular target: T1, CXCR2 (Homo sapiens, UniProt P25025); conditions: at low concentrations; cited from earlier work
T1 sequence (P25025 1-360): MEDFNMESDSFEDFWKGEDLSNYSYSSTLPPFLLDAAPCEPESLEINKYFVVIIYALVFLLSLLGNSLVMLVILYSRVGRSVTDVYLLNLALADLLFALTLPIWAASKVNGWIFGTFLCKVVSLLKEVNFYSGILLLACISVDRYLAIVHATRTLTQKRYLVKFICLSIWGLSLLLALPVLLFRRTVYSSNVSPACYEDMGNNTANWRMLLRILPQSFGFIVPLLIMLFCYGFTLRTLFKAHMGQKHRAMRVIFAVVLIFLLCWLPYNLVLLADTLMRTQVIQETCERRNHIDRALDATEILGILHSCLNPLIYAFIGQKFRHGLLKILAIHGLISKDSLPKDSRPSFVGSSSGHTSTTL

[5] = system: Jurkat cells; experiment: FAS-L induced apoptosis assay, DEK release into cytoplasm; format: cell-based; conditions: Fas Ligand-mediated apoptosis, 3% FAS-L, 180 min
Procedure: Jurkat cells were washed with serum-free RPMI medium and incubated with 3% FAS-L without or with the broad-spectrum caspase inhibitor zVAD for 180 min. Cells were fractionated and the cytoplasm was separated by SDS-PAGE followed by immunoblotting with DEK specific antibodies (mouse monoclonal, BD Bioscience). As a loading control the same blot was reprobed with specific antibodies to beta-actin.

[6] = MDM in 10% human serum, TNF-α 5-100 ng/ml, IFN-γ 10-100 ng/ml, MCP-1 10-100 ng/ml, LPS 500-1000 ng/ml alone and with IFN-γ

## N.N.[Cl][Pt][Cl] [cisplatinum]
[1]
  sensitivity of DEK knock-down cells vs control cells (apoptosis): consistently more sensitive

## IL-8: recombinant IL-8, chemokine, neutrophil chemoattractant
[2]; IL-8 10 ng/ml, 12 h, day 12 MDM grown in 10% human serum
  stimulation of DEK secretion: induces the secretion of DEK; also recorded: effective in stimulating vigorous secretion of DEK

## lipopolysaccharide [LPS]
[2]; [6]
  stimulation of DEK secretion: None of the inflammatory mediators listed above reproducibly stimulated DEK secretion

## Brc1c(Br)c(Br)c2[nH]nnc2c1Br [TBB, 4,5,6,7-tetrabromobenzotriazole]
[2]; 12-day MDM treated with TBB
  inhibition of DEK secretion: complete inhibition
[2]; 12 hours after removal of TBB
  amount of extracellular DEK from TBB-treated cells vs untreated cells: significantly lower
[2]; three-hour treatment of 8-day MDM with TBB (50 μM)
  DEK in supernatants collected during the first 3 hours of incubation in serum free media: absent

## O=C(Nc1ccc([N+](=O)[O-])cc1O)Nc1ccccc1Br [SB225002]
[3]; DEK 79 nM
  neutrophil migration toward DEK: significantly blocked; also recorded: virtually complete inhibition
[3]; IL-8 50 nM
  neutrophil migration toward IL-8: significantly blocked; also recorded: virtually complete inhibition
[4]
  receptor selectivity: selective for CXCR2

## MCP-1: monocyte chemoattractant protein-1
[2]; [6]
  stimulation of DEK secretion: None of the inflammatory mediators listed above reproducibly stimulated DEK secretion

## CC(NC(=O)C(NC(=O)OCc1ccccc1)C(C)C)C(=O)NC(CC(=O)O)C(=O)CF (stereo not drawn) [ZVAD] (Cbz-Val-Ala-Asp-CH2F; configuration not given here)
[5]
  release of DEK into the cytoplasm: blocks

## tunicamycin
[2]; treatment of MDM with tunicamycin (inhibits N-glycosylation)
  DEK secretion: not inhibited

## CC[C@@]1([C@@H]2O[C@@H]([C@H]3O[C@@](O)(CO)[C@H](C)C[C@@H]3C)C[C@@H]2C)CC[C@H]([C@]2(C)CC[C@]3(C[C@H](O)[C@@H](C)[C@@H]([C@@H](C)[C@@H](OC)[C@H](C)C(=O)O)O3)O2)O1 [monensin]
[2]
  amount of DEK found in culture supernatants: does not alter

## COc1cc([C@@H]2c3cc4c(cc3[C@@H](O[C@@H]3O[C@@H]5CO[C@@H](C)O[C@H]5[C@H](O)[C@H]3O)[C@H]3COC(=O)[C@H]23)OCO4)cc(OC)c1O [etoposide]
[1]
  sensitivity of DEK knock-down cells vs control cells (apoptosis): consistently more sensitive

## TNF-α
[2]; [6]
  stimulation of DEK secretion: None of the inflammatory mediators listed above reproducibly stimulated DEK secretion

## C[C@H]1CCC/C=C/[C@@H]2C[C@H](O)C[C@H]2[C@H](O)/C=C/C(=O)O1 [Brefeldin A]
[2]
  amount of DEK found in culture supernatants: does not alter

B1: IFN-γ: inflammatory mediator (protein, UniProt P01579 24-161, looked up)
Interferon gamma: QDPYVKEAENLKKYFNAGHSDVADNGTLFLGILKNWKEESDRKIMQSQIVSFYFKLFKNFKDDQSIQKSVETIKEDMNVKFFNSNKKKRDDFEKLTNYSVTDLNVQRKAIHELIQVMAELSPAAKTGKRKRSQMLFRG
[2]; [6]
  stimulation of DEK secretion: None of the inflammatory mediators listed above reproducibly stimulated DEK secretion
